Data as given in patent US9062095B2, “Mutant double cyclized receptor peptides inhibiting β1-adrenoceptor antibodies” (JULIUS-MAXIMILIANS-UNIVERSTITAT-WURZBURG, priority 2007, dated 2015).
Positions of bridges follow the written chain, without caps; N, C: chain ends.

Columns and labels:
Parameters in all cases: species or system rat
[1] = tested on: anti-beta1-receptor antibody-titers; assay: in vivo therapy study in long term immunized cardiomyopathic rats: antibody-titers by ELISA; details: for in vivo blocking capacity after the first i.v. injection: sera 18-20 hours after injection (FIGS. 14 and 15)
Method: FIG. 16A is a diagram resuming the in vivo blocking effect of both 25AA and 18AA cyclopeptide mutants with a Gln closure site, determined after a total of nine intravenous (i.v.) in-jections of 1.0 mg/kg body weight (Bw) of the indicated peptides into immunized antibody-positive rats. Sera were drawn before and 18-20 hours after i.v. injection of the various peptides every 4 weeks (abscissa: time in months of treatment) and assayed for reactivity by ELISA using the 3 Cys-containing linear 25AA Cys/Cys-peptide as an antigen.
FIG. 16B is a diagram resuming the in vivo blocking effect of various concentrations of 18AA cyclopeptide mutants with a Gln closure site, determined after a total of nine intra-venous (i.v.) injections of 0.25, 1.0, 2.0, and 4.0 mg/kg body weight (Bw) into immunized antibody-positive rats, irrespective of the cyclopeptide “responder-state” of individual animals. Sera were drawn before and 18-20 hours after i.v. injection of the various peptides every 4 weeks (abscissa: time in months), and assayed for reactivity by ELISA using the 3 Cys-containing linear 25AA Cys/Cys-peptide as an antigen.
Sera were drawn as described above and assayed for reactivity by ELISA using the 3 Cys-containing linear 25AA Cys/Cys-peptide as an antigen.
Moreover, the in vivo blocking effects of therapeutically used 25AA and 18AA Cys/Ser cyclo-peptide mutants, the 18AA Ser/Cys mutant (Gln-)cyclopeptide, and a mutated linear 18AA Cys/Ser peptide were assessed after a first intravenous (i.v.) dose (i.e., 1.0 mg/kg body weight (Bw)) of each construct injected into long term immunized anti-beta1-ECII antibody-positive rats, yet presenting a cardiomyopathic phenotype (after nine months of 1× monthly immunization with the beta1-ECII/GST antigen; FIGS. 14-16 and 17). Sera were drawn 18-20 hours after the first i.v. injection of the various constructions and assayed for reactivity by ELISA using the 3 Cys-containing linear 25AA Cys/Cys-peptide as an antigen.
(§1) The latter doses were almost equally efficient in terms of both, neutralization of circulating receptor antibodies (FIGS. 16b and c), and reversal of antibody-induced cardiomyopathic features (FIGS. 17b, 19b, 20, and 21b).
In order to generate anti-β1-receptor antibodies the animals were immunized with a fusion protein containing bacterial glutathione-S-transferase and the sequence of the second extra-cellular loop of the human β1-adrenergic receptor (GST/β1-ECII). Before treatment of the animals with mutated cyclopeptides according to the present invention, progressive dilated immune cardiomyopathy is observed after 6 to 8 months of regular immunization every four weeks (FIG. 17). All of the immunized animals developed high titers of stimulatory anti-β1-ECII antibodies. The specific anti-β1-ECII titer reached a maximum between 6 and 8 months of continuously boosting the animals every 4 weeks, whereas NaCl-injected control animals developed no specific receptor antibodies (FIG. 18).
Such immunized animals were used for the application of mutant cyclopeptides according to the present invention. The in-vivo blocking effect of both 25AA and 18AA Cys/Ser mutant cyclopeptides (with a Gln closure site) were determined after a first intravenous (i.v.) injection of 1.0 mg/kg body weight (Bw) (for 18AA Cys/Ser cyclopeptides also 0.25 mg/kg/Bw) into immunized antibody-positive rats. Sera were drawn 18-20 hours after i.v. injection of the different peptides and assayed for reactivity by ELISA using the 3 Cys-containing linear 25AA Cys/Cys-peptide as an antigen.

[2] = tested on: rats with antibody-induced immune-cardiomyopathy; assay: in vivo therapy study: cardioprotective effect (echocardiography, hemodynamics, organ weights)
Source text: FIG. 17.A is a diagram showing the time course (month 0 to 20) of the internal end-systolic and end-diastolic left ventricular diameters (LVES, LVED) of GST/β1-ECII-immunized un-treated (black circles) versus GST/β1-ECII-immunized animals treated with the indicated various cyclopeptides (see legend) as determined by echocardiography (echocardiographic system: Visual Sonics, Vevo 770 (version V2.2.3), equipped with a 15-17.5 MHz transducer), whereby LVES/LVED is left ventricular end-systolic diameter/left ventricular end-diastolic diameter.
FIG. 17.B is a similar diagram showing the time course (month 0 to 20) of the internal end-systolic and end-diastolic left ventricular diameters (LVES, LVED) of GST/β1-ECII-immunized untreated (black circles) versus GST/β1-ECII-immunized animals, treated with different concentrations of the 18AA Cys/Ser cyclopeptide mutant (see legend).
FIG. 19A is a diagram depicting the time course (month 0 to 20) of the “Cardiac index” (CI) in ml/min/g (body weight) as determined by echocardiography (echocardiographic system see legend to FIG. 17a.).
as §1

[3] = tested on: beta1-ECII receptor antibody-titers; assay: in vivo therapy study cyc22AA versus cyc18AA Cys/Ser in rats immunized over 8 months: antibody-titers; details: injections every 4 weeks, start at month 8; mean ±SEM (FIG. 28A)
Source text: FIGS. 28A and B depict the in vivo blocking (=neutralization) capacity of two cysteine-containing 18AA or 22AA cyclopeptide-mutants of the second extracellular loop (ECII) of the human beta1-adrenergic receptor upon therapeutic injection of the different constructs into rats regularly immunized since 8 months (first=basic immunization followed by 7 antigen-boosts every 4 weeks). The effects of four to five subsequent cyclopeptide-injections every 4 weeks are shown. FIG. 28A depicts the mean values±SEM of each of the treated groups of immunized beta1-ECII-antibody positive cardiomyopathic rats (animal number per group is given in the legend). […] The remaining receptor antibody-titers after each injection in % of the antibody-titers at start therapy (month 8) are depicted (columns). Error bars indicate ±SEM. Numbers in columns indicate the number of (subsequent) monthly injection.
FIG. 28B depicts the time course of antibody-titers after 4 subsequent cyclopeptide-injections, determined before and 20-22 hours after application of the indicated constructs. Values are given in percent of increase or decrease in the respective antibody-titers after each cyclopeptide-injection compared with the antibody-titer determined at start of therapy (month 8). […]

[4] = 0.25 mg/kg Bw, repeated injections every 4 weeks
[5] = 4.0 mg/kg body weight, repeated injections every 4 weeks

Substance: Cyclo-Ala-Asp-Glu-Ala-Arg-Arg-Cys-Tyr-Asn-Asp-Pro-Lys-Cys-Ser-Asp-Phe-Val-Gln (cyclo(ADEARRCYNDPKCSDFVQ); disulfide 7-13; SMILES CC(C)[C@@H]1NC(=O)[C@H](Cc2ccccc2)NC(=O)[C@H](CC(=O)O)NC(=O)[C@H](CO)NC(=O)[C@@H]2CSSC[C@H](NC(=O)[C@H](CCCNC(=N)N)NC(=O)[C@H](CCCNC(=N)N)NC(=O)[C@H](C)NC(=O)[C@H](CCC(=O)O)NC(=O)[C@H](CC(=O)O)NC(=O)[C@H](C)NC(=O)[C@H](CCC(N)=O)NC1=O)C(=O)N[C@@H](Cc1ccc(O)cc1)C(=O)N[C@@H](CC(N)=O)C(=O)N[C@@H](CC(=O)O)C(=O)N1CCC[C@H]1C(=O)N[C@@H](CCCCN)C(=O)N2) [18AA Cys/Ser mutant (Gln-)cyclopeptide, disulphide bond Cys7-Cys13, ring closure Ala1-Gln18]
- number of responders (after 7 injections remaining antibody level equal or inferior to 80% of titer at start of therapy) ([1]; 0.25 mg/kg Bw (FIG. 16C)): 3/4
- achieved decrease in circulating receptor-antibodies compared with 1.0 or 2.0 mg/kg [1, 4]: clearly less efficient
- in vivo blocking capacity after the first i.v. injection ([1]; 0.25 mg/kg body weight): no relevant decrease in receptor-antibodies
- number of responders (after 7 injections remaining antibody level equal or inferior to 80% of titer at start of therapy) ([1]; 1.0 mg/kg Bw (FIG. 16C)): 16/20
- initial transient increase in antibody-titers ([1]; 1.0 mg/kg Bw (FIGS. 16a and b)): did not occur
- in vivo blocking capacity after the first i.v. injection ([1]; 1 mg/kg Bw, listed as 18AA Cys/Ser cyclopeptide mutant): largely superior to that of the linear 18AA Cys/Ser peptide mutant
- in vivo blocking capacity after the first i.v. injection ([1]; 1 mg/kg Bw, listed as 18AA Cys/Ser cyclopeptide mutants): higher in vivo blocking capacity
- absolute decrease in antibody-titers after 9 months of treatment, of the titer at start of therapy ([1]; 1.0 mg/kg i.v. every 4 weeks): −59±14%
- initial transient increase in antibody-titers ([1]; 2.0 mg/kg Bw): did not occur
- number of responders (after 7 injections remaining antibody level equal or inferior to 80% of titer at start of therapy) ([1]; 2.0 mg/kg Bw (FIG. 16C)): 2/5
- absolute decrease in antibody-titers after 9 months of treatment, of the titer at start of therapy ([1]; 2.0 mg/kg i.v. every 4 weeks): −59±12%
- number of responders (after 7 injections remaining antibody level equal or inferior to 80% of titer at start of therapy) ([1]; 4.0 mg/kg Bw (FIG. 16C)): 6/9
- initial transient increase in antibody-titers ([1]; 4.0 mg/kg Bw (high dose)): transient increase in antibody-titers
- antibody scavenging capacity compared with 1.0 or 2.0 mg/kg [1, 5]: did not result in higher efficiency
- absolute decrease in antibody-titers after 9 months of treatment, of the titer at start of therapy ([1]; 4.0 mg/kg i.v. every 4 weeks): −39±14%
- achieved cardioprotective effect compared with 1.0 or 2.0 mg/kg [2, 4]: clearly less efficient
- cardioprotective effects compared with 1.0 or 2.0 mg/kg [2, 5]: did not result in higher efficiency
- reversal of antibody-induced cardiomyopathic features ([2]; 1.0 or 2.0 mg/kg Bw (FIGS. 17B, 19B, 20, 21B)): best cardioprotection
- antibody-titer remaining after 4 injections in percent of the titer at start of therapy [3]: 76.0±23.0%
